Results on 32 sequences are retold here after the supplement of paper PMC11208160.

This data set in a line: recombinant barcode read abundance after kanamycin selection (control-corrected) (log10(CPM+1)); higher = more efficient recombination; sequences stand for … in AGTGCAGAGAAAATCGGCCAGTTTTCTCTGCCTGCAGTCCGCATGCCGT…AGATTTATGCAGCGGACTGCCTTTCTCCCAAAGTGATAAACCGGACAGTATCATGGACCGGTTTTCCCGGTAATCCGTATTTGCAAGGTTGGTTTCACT; site = the 11-nt target. In a few lines: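 Pooled oligos, each joining a target to an IS621 bridge RNA target-binding loop, were cloned and co-electroporated with a donor plasmid into E. coli. Selective plates carried chloramphenicol/ampicillin/kanamycin and 0.1 mM IPTG, while chloramphenicol/ampicillin LB agar served as control, with two replicates of each. Recombination efficiency rests on averaged, control-corrected counts per million of barcodes at recombinant junctions, shown as log10(CPM+1).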
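Note: IS621 recombinase and bridge RNA in Escherichia coli cells.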

Take “AGCAGAGCTTGGGTTCTAACCTGTTGCGG (site AGCAGAGCTCC)”: the “recombinant barcode read abundance (log10)” value was determined as 1.95. The same measure for “AGCAGAGCTTGGGTTCTAACCTGTTGCGG (site AGCAGAGCTCG)”: 0.0598. The same measure for “AGCAGAGCTTGGGTTCTAACCTGTTGCGG (site AGCAGAGCTCT)”: 1.1. With “AGCAGCCCTTGGGTTCTAACCTGTTGCAG (site AGCAGCCCTCT)”, the “recombinant barcode read abundance (log10)” value worked out at 1.72. The same measure for “AGCAGCCCTTGGGTTCTAACCTGTTGCAG (site GTTCCAGCTAG)”: 0.0963; for “AGCATAACTTGGGTTCTAACCTGTTGCCT (site AGCATAACTAG)”: 0.187; for “AGCATAACTTGGGTTCTAACCTGTTGCCT (site AGGAGAACTAG)”: 0.261. For the sequence “AGCCACGCTTGGGTTCTAACCTGTTGCCT (site AGCCACACTAG)”, the “recombinant barcode read abundance (log10)” value was 0.124. In the case of “AGCCACGCTTGGGTTCTAACCTGTTGCCT (site AGCCACCCTAG)”, the “recombinant barcode read abundance (log10)” value amounted to 0.27. With “AGCCACGCTTGGGTTCTAACCTGTTGCCT (site AGCCACGCTAG)” the figure was 1.11. Consider “AGCCACGCTTGGGTTCTAACCTGTTGCCT (site AGCCACTCTAG)”, for which the “recombinant barcode read abundance (log10)” value worked out at 0.153. The same measure for “AGCCATCCTTGGGTTCTAACCTGTTGCAT (site AGCCATCCTAT)”: 0.723. For “AGCCATCCTTGGGTTCTAACCTGTTGCAT (site TGCCATCCTAT)”, the “recombinant barcode read abundance (log10)” value worked out at 0.0638.

For the sequence “AGCCCGCCTTGGGTTCTAACCTGTTGCCT (site AGCCCGCCTAG)”, the “recombinant barcode read abundance (log10)” value stood at 0.358. “AGCCCGCCTTGGGTTCTAACCTGTTGCCT (site CGCCCGCCTAG)”: the “recombinant barcode read abundance (log10)” value is 0.39. With “AGCCCGCCTTGGGTTCTAACCTGTTGCCT (site GGCCCGCCTAG)” the figure was 0.178; with “AGCCCGCCTTGGGTTCTAACCTGTTGCCT (site TGCCCGCCTAG)”, 0.157; with “AGCCCTTCTTGGGTTCTAACCTGTTGCTT (site AGCCCTTCTAA)”, 0.083.

As for “AGCCCTTCTTGGGTTCTAACCTGTTGCTT (site GTAGGGACTCG)”, the “recombinant barcode read abundance (log10)” value is 0.0698. Consider “AGCCTCCCTTGGGTTCTAACCTGTTGCCA (site AGCCTCCCTTG)”, for which the “recombinant barcode read abundance (log10)” value amounted to 0.663. With “AGCCTCCCTTGGGTTCTAACCTGTTGCCA (site CAGGGGTCTAT)” the figure was 0.121; with “AGCGAGGCTTGGGTTCTAACCTGTTGCCT (site AGCGAAGCTAG)”, 0.0233. “AGCGAGGCTTGGGTTCTAACCTGTTGCCT (site AGCGAGGCTAG)”: the “recombinant barcode read abundance (log10)” value came out at 0.188. As to “AGCGCGCCTTGGGTTCTAACCTGTTGCTG (site AGCGCGCCTCA)”, the “recombinant barcode read abundance (log10)” value turned out to be 0.224. The same measure for “AGCGCGCCTTGGGTTCTAACCTGTTGCTG (site GAGTACACTGC)”: 0.00819; for “AGCGCTCCTTGGGTTCTAACCTGTTGCCT (site AACGCTCCTAG)”: 0.0472. The same measure for “AGCGCTCCTTGGGTTCTAACCTGTTGCCT (site ACCGCTCCTAG)”: 0.305; for “AGCGCTCCTTGGGTTCTAACCTGTTGCCT (site AGCGCTCCTAG)”: 0.68; for “AGCGCTCCTTGGGTTCTAACCTGTTGCCT (site ATCGCTCCTAG)”: 0.

Turning to “AGCGGCCCTTGGGTTCTAACCTGTTGCCT (site AGCGGACCTAG)”, the “recombinant barcode read abundance (log10)” value was 0.466.

With “AGCGGCCCTTGGGTTCTAACCTGTTGCCT (site AGCGGCCCTAG)”, the “recombinant barcode read abundance (log10)” value was 1.26. With “AGCGGCCCTTGGGTTCTAACCTGTTGCCT (site AGCGGGCCTAG)” the figure was 0.0662.
